Measurements reported in paper PMC10409773, “Structure, catalysis, chitin transport, and selective inhibition of chitin synthase” (Nature Communications, 2023).

T1: Chs1 (chitin synthase 1) (Saccharomyces cerevisiae, UniProt P08004)
T1 construct: Chs1 (1131 residues) with C-terminal triple-FLAG; N-terminal ~374 residues largely disordered; homodimer
T1 sequence (P08004 1-1131): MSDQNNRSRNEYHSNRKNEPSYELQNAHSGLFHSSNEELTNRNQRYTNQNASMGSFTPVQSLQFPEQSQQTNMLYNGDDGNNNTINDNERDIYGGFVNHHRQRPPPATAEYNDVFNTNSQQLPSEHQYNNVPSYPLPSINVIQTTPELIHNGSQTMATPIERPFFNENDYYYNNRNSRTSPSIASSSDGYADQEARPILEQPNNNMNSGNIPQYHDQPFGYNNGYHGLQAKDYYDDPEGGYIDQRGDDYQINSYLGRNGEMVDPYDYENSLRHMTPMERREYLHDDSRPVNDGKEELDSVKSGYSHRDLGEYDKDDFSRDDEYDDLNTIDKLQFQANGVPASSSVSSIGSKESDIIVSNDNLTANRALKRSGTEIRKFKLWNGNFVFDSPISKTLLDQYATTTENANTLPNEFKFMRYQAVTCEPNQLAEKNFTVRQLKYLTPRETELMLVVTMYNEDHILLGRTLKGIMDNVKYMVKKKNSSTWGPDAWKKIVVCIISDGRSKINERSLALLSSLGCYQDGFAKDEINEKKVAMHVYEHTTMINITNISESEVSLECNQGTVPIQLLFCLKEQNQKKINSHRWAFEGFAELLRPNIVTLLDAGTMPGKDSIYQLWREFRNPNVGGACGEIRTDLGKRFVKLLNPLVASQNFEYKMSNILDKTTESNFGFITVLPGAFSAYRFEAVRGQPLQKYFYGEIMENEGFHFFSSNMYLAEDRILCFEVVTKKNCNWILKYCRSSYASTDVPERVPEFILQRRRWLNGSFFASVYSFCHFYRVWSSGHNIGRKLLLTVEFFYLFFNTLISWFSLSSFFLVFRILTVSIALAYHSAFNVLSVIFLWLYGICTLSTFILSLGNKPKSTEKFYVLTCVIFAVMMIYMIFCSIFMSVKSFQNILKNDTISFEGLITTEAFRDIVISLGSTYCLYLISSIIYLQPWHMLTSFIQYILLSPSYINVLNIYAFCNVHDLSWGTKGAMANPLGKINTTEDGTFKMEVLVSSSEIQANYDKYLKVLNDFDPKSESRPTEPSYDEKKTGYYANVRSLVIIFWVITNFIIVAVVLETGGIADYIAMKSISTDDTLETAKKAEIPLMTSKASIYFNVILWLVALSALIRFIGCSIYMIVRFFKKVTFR


Assays:
Chs1 (chitin synthase 1) = biological target: T1, Chs1 (chitin synthase 1); assay: cryo-EM structure at […] Å with UDP-GlcNAc (also with UDP, 8K3U); type: binding
[1] = biological target: the molecule itself; assay: cryo-EM structure; single-particle cryo-EM of purified Chs1 (~3 mg/mL) in LMNG/GDN/CHS, alone or with 5 mM UDP-GlcNAc, GlcNAc, UDP, Nikkomycin Z or Polyoxin B on ice; maps refined with C2 symmetry

Molecule | cryo-EM structure at 2.9 Å with UDP-GlcNAc (also with UDP, 8K3U) (Chs1 (chitin synthase 1)) | stoichiometry N [1]
CC(=O)N[C@H]1C(O)O[C@H](CO)[C@@H](O)[C@@H]1O (some centres unmarked) [GlcNAc] | The GlcNAc ring is vertically inserted into a slit between the indole ring of W760 and the pyrrolidine ring | 
Saccharomyces cerevisiae chitin synthase 1 (Chs1), wild type, C-terminal triple FLAG (enzyme, S. cerevisiae, Chitin synthase 1 (Chs1), S. cerevisiae, UniProt P08004; the first 374 residues (except 245-271) are not seen in the maps; the purified sample was partly digested in the N-terminal region by endogenous protease (a smaller species lacks about the N-terminal 150 residues); also called ScChs1; scChs1) MSDQNNRSRNEYHSNRKNEPSYELQNAHSGLFHSSNEELTNRNQRYTNQNASMGSFTPVQSLQFPEQSQQTNMLYNGDDGNNNTINDNERDIYGGFVNHHRQRPPPATAEYNDVFNTNSQQLPSEHQYNNVPSYPLPSINVIQTTPELIHNGSQTMATPIERPFFNENDYYYNNRNSRTSPSIASSSDGYADQEARPILEQPNNNMNSGNIPQYHDQPFGYNNGYHGLQAKDYYDDPEGGYIDQRGDDYQINSYLGRNGEMVDPYDYENSLRHMTPMERREYLHDDSRPVNDGKEELDSVKSGYSHRDLGEYDKDDFSRDDEYDDLNTIDKLQFQANGVPASSSVSSIGSKESDIIVSNDNLTANRALKRSGTEIRKFKLWNGNFVFDSPISKTLLDQYATTTENANTLPNEFKFMRYQAVTCEPNQLAEKNFTVRQLKYLTPRETELMLVVTMYNEDHILLGRTLKGIMDNVKYMVKKKNSSTWGPDAWKKIVVCIISDGRSKINERSLALLSSLGCYQDGFAKDEINEKKVAMHVYEHTTMINITNISESEVSLECNQGTVPIQLLFCLKEQNQKKINSHRWAFEGFAELLRPNIVTLLDAGTMPGKDSIYQLWREFRNPNVGGACGEIRTDLGKRFVKLLNPLVASQNFEYKMSNILDKTTESNFGFITVLPGAFSAYRFEAVRGQPLQKYFYGEIMENEGFHFFSSNMYLAEDRILCFEVVTKKNCNWILKYCRSSYASTDVPERVPEFILQRRRWLNGSFFASVYSFCHFYRVWSSGHNIGRKLLLTVEFFYLFFNTLISWFSLSSFFLVFRILTVSIALAYHSAFNVLSVIFLWLYGICTLSTFILSLGNKPKSTEKFYVLTCVIFAVMMIYMIFCSIFMSVKSFQNILKNDTISFEGLITTEAFRDIVISLGSTYCLYLISSIIYLQPWHMLTSFIQYILLSPSYINVLNIYAFCNVHDLSWGTKGAMANPLGKINTTEDGTFKMEVLVSSSEIQANYDKYLKVLNDFDPKSESRPTEPSYDEKKTGYYANVRSLVIIFWVITNFIIVAVVLETGGIADYIAMKSISTDDTLETAKKAEIPLMTSKASIYFNVILWLVALSALIRFIGCSIYMIVRFFKKVTFR |  | 2
